Test results reported in publication PMC10648349, “Aromatic Diboronic Acids as Effective KPC/AmpC Inhibitors” (Molecules, 2023).
Converted amounts (≈) assume the structure as drawn. Where two headings read alike, the source gives them in different places. Values belong to the compound of their own block, whether it stands above or below them.

What was measured:
E. faecalis ATCC 29212 = experiment: direct antimicrobial activity (disc-diffusion, MIC, MBC); assay type: cell-based; details: Enterococcus faecalis, ATCC29212
Procedure, shortened: (§1)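 Testing of direct antimicrobial action relied on CLSI and EUCAST protocols, namely disc diffusion, MIC and cidal-concentration determinations. Each disc carried 0.4 mg of test agent.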

[1] = tested on: S. aureus ATCC 43300 MRSA; experiment: as above; assay type: cell-based; details: Staphylococcus aureus
Procedure, shortened: as §1

S. aureus ATCC 6538P = experiment: as above; assay type: cell-based; details: Staphylococcus aureus, ATCC6538P
Procedure, shortened: as §1

[2] = tested on: C. parapsilosis ATCC 22019; experiment: antifungal activity (disc-diffusion, MIC, MFC); assay type: cell-based, Candida parapsilosis; details: Lodderomyces parapsilosis, ATCC22019; for zone of inhibition at 0.4 mg/disc: 0.4 mg per disc, 9 mm disc (fluconazole 0.025 mg, 6 mm disc), - no zone, read-out: Diameter of inhibition zone; for MIC: fluconazole by Etest
Procedure, shortened: as §1

[3] = tested on: C. guilliermondii IBA 155; experiment: antifungal activity (disc-diffusion, MIC, MFC); assay type: cell-based, Candida guilliermondii; details: Meyerozyma guilliermondii, IBA155; for zone of inhibition at 0.4 mg/disc: 0.4 mg per disc, 9 mm disc (fluconazole 0.025 mg, 6 mm disc), - no zone, read-out: Diameter of inhibition zone; for MIC: fluconazole by Etest
Procedure, shortened: as §1

C. krusei ATCC 6258 = experiment: antifungal activity (disc-diffusion, MIC, MFC); assay type: cell-based, Candida krusei; details: Pichia kudriavzevii, ATCC6258; for zone of inhibition at 0.4 mg/disc: 0.4 mg per disc, 9 mm disc (fluconazole 0.025 mg, 6 mm disc), - no zone, read-out: Diameter of inhibition zone; for MIC: fluconazole by Etest
Procedure, shortened: as §1

E. coli 76 KPC-2(+) = experiment: MIC of tested agent alone, microdilution; assay type: cell-based
Procedure, shortened: (§2)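 Broth microdilution checkerboard: β-lactam in seven two-fold dilutions (1–64 mg/L) against tested agent or PBA in three two-fold dilutions (4–16 mg/L). Antibiotic MICs were read at each agent level, with agent-alone MICs run in parallel by microdilution.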

E. coli 77 CMY-2(+) = experiment: MIC of tested agent alone, microdilution; assay type: cell-based
Procedure, shortened: as §2

[4] = tested on: K. pneumoniae 81 KPC-3(+); experiment: MIC of tested agent alone, microdilution; assay type: cell-based
Procedure, shortened: as §2

[5] = tested on: K. pneumoniae 83 KPC-3(+), CTX-M-3(+); experiment: MIC of tested agent alone, microdilution; assay type: cell-based
Procedure, shortened: as §2

[6] = tested on: K. pneumoniae ATCC BAA-1705 KPC-2(+); experiment: MIC of tested agent alone, microdilution; assay type: cell-based
Procedure, shortened: as §2

[7] = tested on: P. aeruginosa MUW 700 AmpC(+); experiment: MIC of tested agent alone, microdilution; assay type: cell-based
Procedure, shortened: as §2

[8] = tested on: P. aeruginosa MUW 700 cAmpC-positive; experiment: combination disc test CDT-AmpC; assay type: cell-based; details: Pseudomonas aeruginosa, read-out: Diameter of inhibition zone, CAZ-30 disc with agent
[9] = tested on: E. coli 77 CMY-2-positive; experiment: combination disc test CDT-AmpC; assay type: cell-based; details: Escherichia coli, read-out: Diameter of inhibition zone, CAZ-30 disc with agent
[10] = tested on: K. pneumoniae ATCC 700603 ESBL-positive; experiment: combination disc test CDT-ESBL; assay type: cell-based; details: Klebsiella pneumoniae
[11] = tested on: P. aeruginosa MUW 700 cAmpC-positive; experiment: checkerboard microdilution, antibiotic plus tested agent; assay type: cell-based, Pseudomonas aeruginosa
Protocol: To examine the ability of tested agents to inhibit various carbapenemases and AmpC-enzymes, their synergy with antibiotics against β-lactamase-producing strains was assessed by checkerboard microdilution assay, with slight modification. Checkerboards were prepared in microtiter plates, with seven two-fold dilutions of β-lactams (1–64 mg/L) in the rows and three two-fold dilutions of tested agents and PBA (4–16 mg/L) in the columns. Tested agents’ concentrations were limited to the concentrations at which the newest commercially available BLIs (vaborbactam, relebactam, and avibactam) are used in susceptibility testing. Plates were inoculated and incubated as in the MIC microdilution assay. Parallel, MICs of tested agents and PBA alone were determined by the microdilution assay. Following the incubation, antibiotic MICs in the presence of each agent’s concentration were determined. Moreover, for the first well without growth found in each checkerboard row and column along the growth/non-growth interface, the fractional inhibitory concentration index (FICI) was calculated using the formula below:FICI = [(MIC of antibiotic in combination)/(MIC of antibiotic alone)] + [(MIC of the tested agent in combination)/(MIC of tested agent alone)].
For calculations, all off-scale MICs were converted to the next-highest doubling concentration. Subsequently, both the average and the lowest FICI were interpreted. The interpretation was as follows: FICI ≤ 0.5, synergy; 0.5 < FICI ≤ 4, indifference and FICI > 4, antagonism. Primarily, examined combinations consisted of meropenem (Pol-Aura, Morag, Poland) plus tested agents against carbapenemases-producing strains and ceftazidime (Pol-Aura, Morag, Poland) plus tested agents against AmpC-producing strains. For agents that reduced meropenem MIC at least 4-fold for at least two tested strains, similar assays were performed with imipenem (Pol-Aura, Morag, Poland) and ertapenem (Pol-Aura, Morag, Poland).

[12] = MTT-based viability assay; assay type: cell-based; details: human
Procedure, shortened: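 MRC-5 human fibroblasts grown in MEME with 10% FBS at 37 °C, 5% CO2, tested by MTT with absorbance read at 570 nm. Viability given as percent of untreated control cells, in triplicate.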

B. subtilis ATCC 6633 = experiment: direct antimicrobial activity (disc-diffusion); assay type: cell-based; details: Bacillus subtilis, ATCC6633; 0.4 mg per disc, 9 mm disc (linezolid 0.03 mg, 6 mm disc); - no zone; read-out: Diameter of inhibition zone
Protocol: Direct antimicrobial activity against Gram-negative and Gram-positive bacterial strains, as well as against yeast, was examined as previously described by the disc-diffusion test, the MIC determination assay, the MBC (for bacteria), and the MFC (for yeasts) determination tests. All the above-mentioned tests were performed according to EUCAST [71, 72] and CLSI [73, 74, 75, 76, 77] recommendations. The following reference agents were used: nitrofurantoin (for Gram-negative rods), linezolid (for Gram-positive bacteria), and fluconazole (in the case of fungi). The new aromatic diboronic acids were dissolved in DMSO (Sigma, St. Louis, MO, USA). In the disc-diffusion test, the concentration of new agents was 0.4 mg per disc.

[13] = Escherichia coli; read-out: MIC of agent alone
[14] = Klebsiella pneumoniae; read-out: MIC of agent alone
[15] = 0.4 mg per disc, 9 mm disc (linezolid 0.03 mg, 6 mm disc), - no zone, read-out: Diameter of inhibition zone
[16] = Escherichia coli, read-out: MIC of agent alone
[17] = Klebsiella pneumoniae, read-out: MIC of agent alone

- MIC (E. faecalis ATCC 29212): 400 µg/mL (≈ 2530 µM)
- MIC [1]: 100 µg/mL (≈ 633 µM)
- MIC (S. aureus ATCC 6538P): 50 µg/mL (≈ 317 µM)
- MIC [2]: 25 µg/mL (≈ 158 µM)
- MIC [3]: 25 µg/mL (≈ 158 µM)
- MIC (C. krusei ATCC 6258): 50 µg/mL (≈ 317 µM)
- MIC (E. coli 76 KPC-2(+); [13]): 100 µg/mL
- MIC (E. coli 77 CMY-2(+); [13]): 100 µg/mL
- MIC [4, 14]: 200 µg/mL
- MIC [5, 14]: 100 µg/mL
- MIC ([6]; Klebsiella pneumoniae, ATCCBAA1705; read-out: MIC of agent alone): 100 µg/mL
- MIC ([7]; Pseudomonas aeruginosa; read-out: MIC of agent alone): 400 µg/mL
SMILES: OB(O)c1cc(F)ccc1F [7a, 2,5-difluorophenylboronic acid]
- zone of inhibition at 0.4 mg/disc [2]: 21 mm
- zone of inhibition at 0.4 mg/disc [3]: 33 mm
- zone of inhibition at 0.4 mg/disc (C. krusei ATCC 6258): 15 mm
- zone of inhibition at 30 µg/disc ([8]; agent 0.03 mg per disc): 17 mm
- zone of inhibition at 30 µg/disc ([9]; agent 0.03 mg per disc): 19 mm
- zone of inhibition at 30 µg/disc ([10]; ATCC700603, agent 0.03 mg per disc, read-out: Diameter of inhibition zone, CAZ-30 disc with agent): 15 mm
- Average FICI with ceftazidime [11]: 0.17
- Interpretation of the average FICI with ceftazidime [11]: S (FICI ≤ 0.5, synergy)
- Interpretation of the lowest FICI with ceftazidime [11]: S (FICI ≤ 0.5, synergy)
- The lowest FICI with ceftazidime [11]: 0.10
- viability at 72 h, 12.5 mg/L [12]: 83 ± 2.9%
- viability at 72 h, 25 mg/L [12]: 79.9 ± 3.7%
- viability at 72 h, 50 mg/L [12]: 67.3 ± 3.1%

SMILES: O=Cc1cc(F)ccc1B(O)O [7b]
- MIC (E. faecalis ATCC 29212): 200 µg/mL (≈ 1190 µM)
- zone of inhibition at 0.4 mg/disc (E. faecalis ATCC 29212; [15]): 14 mm
- MIC [1]: 50 µg/mL (≈ 298 µM)
- zone of inhibition at 0.4 mg/disc [1, 15]: 20 mm
- MBC (S. aureus ATCC 6538P): 100 µg/mL (≈ 595 µM)
- MIC (S. aureus ATCC 6538P): 50 µg/mL (≈ 298 µM)
- zone of inhibition at 0.4 mg/disc (S. aureus ATCC 6538P; [15]): 19 mm
- zone of inhibition at 0.4 mg/disc (B. subtilis ATCC 6633): 22 mm
- zone of inhibition at 0.4 mg/disc [2]: 17 mm
- MIC [2]: 12.5 µg/mL (≈ 74.4 µM)
- zone of inhibition at 0.4 mg/disc [3]: 27 mm
- MIC [3]: 25 µg/mL (≈ 149 µM)
- zone of inhibition at 0.4 mg/disc (C. krusei ATCC 6258): 28 mm
- MIC (C. krusei ATCC 6258): 25 µg/mL (≈ 149 µM)
- viability at 72 h, 12.5 mg/L ([12]; MRC-5 human fibroblasts, 12.5 mg/L, 72 h, read-out: Viability of MRC-5 cells (% of viable cells ± SD)): 48.9 ± 3.8%
- viability at 72 h, 25 mg/L ([12]; MRC-5 human fibroblasts, 25 mg/L, 72 h, read-out: Viability of MRC-5 cells (% of viable cells ± SD)): 6.4 ± 1.4%
- viability at 72 h, 50 mg/L ([12]; MRC-5 human fibroblasts, 50 mg/L, 72 h, read-out: Viability of MRC-5 cells (% of viable cells ± SD)): 0.9 ± 0.7%
- viability at 72 h ([12]; MRC-5 human fibroblasts, 12.5, 25 and 50 mg/L, 72 h): 0 to 56.4%

SMILES: OB(O)c1ccccc1 [PBA, phenylboronic acid, reference compound]
- MIC (E. coli 76 KPC-2(+); [16]): > 400 µg/mL
- MIC (E. coli 77 CMY-2(+); [16]): > 400 µg/mL
- MIC [4, 17]: > 400 µg/mL
- MIC [5, 17]: > 400 µg/mL
- MIC ([6]; Klebsiella pneumoniae, ATCCBAA1705, read-out: MIC of agent alone): > 400 µg/mL
- MIC ([7]; Pseudomonas aeruginosa, read-out: MIC of agent alone): > 400 µg/mL
- zone of inhibition at 300 µg/disc [8]: 24 mm
- zone of inhibition at 300 µg/disc [9]: 24 mm
- zone of inhibition at 300 µg/disc ([10]; ATCC700603, read-out: Diameter of inhibition zone, CAZ-30 disc with agent): 14 mm
- Average FICI with ceftazidime [11]: 0.10
- Interpretation of the average FICI with ceftazidime [11]: S (FICI ≤ 0.5, synergy)
- Interpretation of the lowest FICI with ceftazidime [11]: S (FICI ≤ 0.5, synergy)
- The lowest FICI with ceftazidime [11]: 0.07
- viability at 72 h, 12.5 mg/L ([12]; 12.5 mg/L, 72 h, read-out: Viability of MRC-5 cells (% of viable cells ± SD)): 81.5 ± 3.7%
- viability at 72 h, 25 mg/L ([12]; 25 mg/L, 72 h, read-out: Viability of MRC-5 cells (% of viable cells ± SD)): 79.1 ± 4.4%
- viability at 72 h, 50 mg/L ([12]; 50 mg/L, 72 h, read-out: Viability of MRC-5 cells (% of viable cells ± SD)): 58.7 ± 4.3%
